Data taken from patent US6509359B1, “Pyrrolidin-2-one compounds and their use as neuraminidase inhibitors” (priority 1997, dated 2003).

Columns and labels:
[1] = target: influenza neuraminidase (N2) (Influenza A virus, UniProt P06820); assay: biochemical; type: biochemical, influenza virus Type A
[2] = target: Influenza NA Type B B/Lee (Influenza B virus, UniProt P03474); assay: Inhibition of influenza neuraminidase (B/Lee); type: biochemical
[3] = system: HA; conditions: cited from earlier work
[4] = cited from earlier work
[5] = target: neuraminidase from the H1N9 strain of influenza (Influenza A virus, UniProt P03472); assay: biochemical
[6] = Oral bioavailability; type: in vivo

Structure (SMILES)	IC50 [1]	IC50 [5]	other results
CCC(CC)Nc1cc(C(=O)O)ccc1N1C(=O)CCC1(CN)CO (stereo not shown) [Compound B]	0.04 µM	–	Effectiveness relative to example 8 for the inhibition of influenza neuraminidase (N2) [1]: approximately twice as effective as example 8; IC50 [2]: 49 µM
CC(=O)N[C@H]1[C@H]([C@H](O)[C@H](O)CO)OC(C(=O)O)=C[C@@H]1O [DANA, 2-deoxy-2,3-didehydro-N-acetylneuraminic acid]	–	–	Inhibition in vitro [3]: inhibit HA in vitro; Activity in vivo [4]: inactive in vivo
O=C(O)c1ccc(N2CCCC2=O)cc1 [Example 1, 1-(4-Carboxyphenyl)pyrrolidin-2-one]	–	> 7000 µM	melting point: 244 to 246 °C
NCC1CCC(=O)N1c1ccc(C(=O)O)cc1N=C(N)N (stereo not shown) [Example 4, 1-1-{2-{[(Amino)(imino)methyl]amino}-4-carboxyphenyl}-5-(aminomethyl)pyrrolidin-2-one]	–	2600 µM	–
O=C(O)c1ccc(N2C(=O)CCC2(CO)CO)cc1 [Example 5, 1-(4-Carboxyphenyl)-5,5-bis-(hydroxymethyl)pyrrolidin-2-one]	–	700 µM	–
N=C(N)Nc1cc(C(=O)O)ccc1N1C(=O)CCC1(CO)CO [Example 6, 1-{2-{[(Amino)(imino)methyl]amino}-4-carboxyphenyl}-5,5-bis-(hydroxymethyl)-pyrrolidin-2-one]	–	5 µM	–
CCC(CC)Nc1cc(C(=O)O)ccc1N1CCCC1=O [Example 7, 1-[4-Carboxy-2-(3-pentylamino)phenyl]pyrrolidin-2-one]	–	220 µM	–
CCC(CC)Nc1cc(C(=O)O)ccc1N1C(=O)CCC1(CO)CO [Example 8, 1-[4-Carboxy-2-(3-pentylamino)phenyl]-5,5-bis-(hydroxymethyl)pyrrolidin-2-one]	0.071 µM	0.048 µM	IC50 [2]: 93 µM; Oral bioavailability [6]: orally bioavailable
CCCC(CC)Nc1cc(C(=O)O)ccc1N1C(=O)CCC1(CO)CO (stereo not shown) [Example 9, 1-[4-Carboxy-2-(3-hexylamino)phenyl]-5,5-bis-(hydroxymethyl)pyrrolidin-2-one]	–	116 µM	–
CCCC(CCC)Nc1cc(C(=O)O)ccc1N1C(=O)CCC1(CO)CO [Example 10, 1-[4-Carboxy-2-(4-heptylamino)phenyl]-5,5-bis-(hydroxymethyl)pyrrolidin-2-one]	8.1 µM	5.5 µM	–
CCC(CC)CNc1cc(C(=O)O)ccc1N1C(=O)CCC1(CO)CO [Example 11, 1-{4-Carboxy-2-[3-pentyl)methylaminolphenyl}-5,5-bis-(hydroxymethyl)pyrrolidin-2-one.]	3.5 µM	–	–
CCCNc1cc(C(=O)O)ccc1N1C(=O)CCC1(CO)CO [Example 12]	15.5 µM	–	–
CCC(=O)Nc1cc(C(=O)O)ccc1N1C(=O)CCC1(CO)CO [Example 14, 1-[4-Carboxy-2-(ethylcarbonylamino)phenyl]-5,5-bis(hydroxymethyl)pyrrolidin-2-one]	1.5 µM	–	–
CCC(C)C(=O)Nc1cc(C(=O)O)ccc1N1C(=O)CCC1(CO)CO (stereo not shown) [Example 15, 1-{[4-Carboxy-2-(1-methylpropyl)carbonylamino]pheny}-5,5-bis(hydroxymethyl)-pyrrolidin-2-one]	0.18 µM	–	–
CCC(CC)C(=O)Nc1cc(C(=O)O)ccc1N1C(=O)CCC1(CO)CO [Example 16]	0.82 µM	–	–
CCC(C)C(=O)Nc1cc(C(=O)O)ccc1N1C(=O)CCC1(CN)CO (stereo not shown) [Example 17, 5-Aminomethyl-1-{[4-carboxy-2-(1-methylpropyl)carbonylamino]phenyl}-5-hydroxymethylpyrrolidin-2-one]	6 µM	–	–
CCC(CC)Nc1cc(C(=O)O)ccc1N1C(=O)CCC1(CO)CCO (stereo not shown) [Example 18, 1-[4-Carboxy-2-(1-ethylpropylamino)phenyl]-5-hydroxyethyl-5-hydroxymethyl-pyrrolidin-2-one]	184 µM	–	–
